How the values were obtained:
Assay type in all cases: in vivo
[1] = tested on: Cowpea aphid (Aphis craccivora); assay: Cowpea aphid spray test on potted cowpea plants; conditions: population reduction assessed after 24, 72 and 120 hours, read-out: mortality in comparison with untreated controls
Experimental: If not otherwise specified the test solutions were prepared as follows:
The active compound was dissolved at the desired concentration in a mixture of 1:1 (vol:vol) distilled water:aceton. The test solution was prepared at the day of use and in general at concentrations of ppm (wt/vol).
Potted cowpea plants colonized with 100-150 aphids of various stages were sprayed after the pest population had been recorded. Population reduction was assessed after 24, 72, and 120 hours.

[2] = tested on: Vetch aphid (Megoura viciae); assay: Vetch aphid bean leaf disk microtiter plate test; conditions: foliar, 144 h, 6 days, assessed on the basis of vital, reproduced aphids, read-out: mortality in comparison with untreated controls
Experimental: The active compounds were formulated in 3:1 (vol:vol) water:DMSO with different concentrations of formulated compounds.
Bean leaf disks were placed into microtiterplates filled with 0.8% agar-agar and 2.5 ppm OPUS™. The leaf disks were sprayed with 2.5 μl of the test solution and 5 to 8 adult aphids were placed into the microtiter plates which were then closed and kept at 23±1° C. and 50±5% relative humidity under fluorescent light for 6 days. Mortality was assessed on the basis of vital, reproduced aphids. Aphid mortality and fecundity was then visually assessed.

[3] = tested on: Green peach aphid (Myzus persicae); assay: Green peach aphid spray test on bell pepper plants; conditions: 120 h, aphid mortality determined after 5 days, read-out: mortality in comparison with untreated controls
Experimental: (§1) The active compounds were formulated in cyclohexanone as a 10,000 ppm solution supplied in 1.3 ml ABgene® tubes. These tubes were inserted into an automated electrostatic sprayer equipped with an atomizing nozzle and they served as stock solutions for which lower dilutions were made in 1:1 (vol:vol) water:aceton. A nonionic surfactant (Kinetic®) was included in the solution at a volume of 0.01% (v/v).
Bell pepper plants at the first true-leaf stage were infested prior to treatment by placing heavily infested leaves from the main colony on top of the treatment plants. Aphids were allowed to transfer overnight to accomplish an infestation of 30-50 aphids per plant and the host leaves were removed. The infested plants were then sprayed by an automated electrostatic plant sprayer equipped with an atomizing spray nozzle. The plants were dried in the sprayer fume hood, removed, and then maintained in a growth room under fluorescent lighting in a 24 hour photoperiod at 25° C. and 20-40% relative humidity. Aphid mortality on the treated plants, relative to mortality on untreated control plants, was determined after 5 days.

[4] = tested on: Silverleaf whitefly (Bemisia argentifolii, adult); assay: Silverleaf whitefly test on sprayed cotton plants; conditions: 72 h, mortality assessed 3 days after treatment, read-out: mortality in comparison with untreated controls
Experimental: as §1
Cotton plants at the cotyledon stage (one plant per pot) were sprayed by an automated electrostatic plant sprayer equipped with an atomizing spray nozzle. The plants were dried in the sprayer fume hood and then removed from the sprayer. Each pot was placed into a plastic cup and 10 to 12 whitefly adults (approximately 3-5 days […]) were introduced. The insects were collected using an aspirator and 0.6 cm, nontoxic Tygon® tubing (R-3603) connected to a barrier pipette tip. The tip, containing the collected insects, was then gently inserted into the soil containing the treated plant, allowing insects to crawl out of the tip to reach the foliage for feeding. Cups were covered with a reusable screened lid (150-micron mesh polyester screen PeCap from Tetko, Inc.). […] Mortality was assessed 3 days after treatment, compared to untreated control plants.

[5] = tested on: Cotton aphid (Aphis gossypii, mixed life stages); assay: Cotton aphid spray test on cotton plants; conditions: 120 h, aphid mortality determined after 5 days, read-out: mortality in comparison with untreated controls
Experimental: as §1
Cotton plants at the cotyledon stage were infested with aphids prior to treatment by placing a heavily infested leaf from the main aphid colony on top of each cotyledon. Aphids were allowed to transfer overnight to accomplish an infestation of 80-100 aphids per plant and the host leaf was removed. The infested plants were then sprayed by an automated electrostatic plant sprayer equipped with an atomizing spray nozzle. The plants were dried in the sprayer fume hood, removed from the sprayer, and then maintained in a growth room under fluorescent lighting in a 24-hr photoperiod at 25° C. and 20-40% relative humidity. Aphid mortality on the treated plants, relative to mortality on untreated control plants, was determined after 5 days.

CCC(C)=NOCC(C)n1ncc(C(=O)N(CC)c2ccnnc2)c1C (single isomer, unassigned) [I-9, N-ethyl-5-methyl-1-[1-methyl-2-[1-methyl-propylideneamino]oxy-ethyl]-N-pyridazin-4-yl-pyrazole-4-carboxamide]
≥ 75%: mortality at 500 ppm [1] | mortality at 2500 ppm [2] | mortality at 300 ppm [3] | mortality at 300 ppm [4] | mortality at 300 ppm [5]

Reference: patent publication US9955692B2, “Pyrazoles for controlling invertebrate pests” (BASF SE, priority 2014, dated 2018)
